According to patent US6010854A, “Autoantibodies to neurotransmitter receptors” (University of Utah Research Foundation, priority 1997, dated 2000):

Assays:
Type in all cases: cell-based
[1] = test system: anti-GluR3 antibody-evoked currents, mouse cortical neurons in culture; assay: Block of anti-GluR3 antibody-evoked whole cell currents; settings: for blockage of anti-GluR3 antibody-evoked currents: CNQX 40 μM, MK-801 10 μM, peptides 0.5 mg/ml incubated with serum or IgG for 15 minutes
[2] = test system: glutamate receptors, fetal mouse cortical neurons in culture; assay: Whole cell currents evoked in voltage-clamped neurons in culture; settings: 100 μM NMDA with 1 μM glycine, -75 mV, 1 mM MgCl2
Experimental: To examine functional consequences of antibody binding to glutamate receptors, electrophysiological methods were used to record whole cell currents from mouse cortical neurons in culture. Neuronal cultures from fetal (E14-16) mouse cortical and hippocampal structures were prepared on poly-L-lysine-coated 35 mm "FALCON" dishes according to G. Skeen et al., 44 Molec. Pharmacol. 443 (1993), hereby incorporated by reference. Cultures were fed every other day using a growth medium consisting of DMEM, 10% horse serum, 30 mM glucose, and 0.5 mM glutamine. Arabinosylcytosine (ARA-C) was added for 1 day during the first week in culture to suppress growth of non-neuronal cells. Electrophysiological experiments were performed on 2-5 week old cultures at room temperature. External solution consisted of 145 mM NaCl, 1.5 mM KCl, 1 mM CaCl2, 1 mM MgCl2, 10 mM Na-HEPES, 10 mM glucose, 30 mM sucrose at pH 7.4, 320 mOsm. Internal solution consisted of 153 mM CsCl, 10 mM Cs-HEPES, 4 mM MgCl2, 5 mM EGTA at pH 7.35, 300 mOsm. Solutions were designed for measurement of predominantly sodium inward currents and to block NMDA receptor currents when neurons are voltage clamped at -75 mV. […]
Currently, the composition of native GluR's and GABAR's is unknown and the potential diversity of native receptors is immense. […] Five cells are recorded for each paradigm and antibody. […]

[3] = test system: currents evoked by serum from a Rasmussen's encephalitis patient, fetal mouse cortical neurons; assay: Block of whole cell currents evoked by serum from a Rasmussen's encephalitis patient
Experimental: To examine functional consequences of antibody binding to glutamate receptors, electrophysiological methods were used to record whole cell currents from mouse cortical neurons in culture. Neuronal cultures from fetal (E14-16) mouse cortical and hippocampal structures were prepared on poly-L-lysine-coated 35 mm "FALCON" dishes according to G. Skeen et al., 44 Molec. Pharmacol. 443 (1993), hereby incorporated by reference. Cultures were fed every other day using a growth medium consisting of DMEM, 10% horse serum, 30 mM glucose, and 0.5 mM glutamine. Arabinosylcytosine (ARA-C) was added for 1 day during the first week in culture to suppress growth of non-neuronal cells. Electrophysiological experiments were performed on 2-5 week old cultures at room temperature. External solution consisted of 145 mM NaCl, 1.5 mM KCl, 1 mM CaCl2, 1 mM MgCl2, 10 mM Na-HEPES, 10 mM glucose, 30 mM sucrose at pH 7.4, 320 mOsm. Internal solution consisted of 153 mM CsCl, 10 mM Cs-HEPES, 4 mM MgCl2, 5 mM EGTA at pH 7.35, 300 mOsm. Solutions were designed for measurement of predominantly sodium inward currents and to block NMDA receptor currents when neurons are voltage clamped at -75 mV. […] To block other currents, 0.2-1 μM tetrodotoxin (TTX), 10 μM picrotoxin, 10 nM strychnine were added to the external solution. External solution was perfused continuously at about 2 ml/min. […]

Compound | Antibody-evoked currents reduced to % of control ([1]; 40 μM, rabbit serum 1:8, 6 cells) | blockage of anti-GluR3 antibody-evoked currents [1] | current evoked by NMDA [2] | blockage of currents evoked by serum from a Rasmussen's encephalitis patient [3]
N#Cc1cc2c(cc1[N+](=O)[O-])=NC(=O)C(=O)N=2 [CNQX, 6-cyano-7-nitro-quinoxaline-2,3-dione, reference compound] | 4±20 % of control | rapid, reversible, and voltage independent |  | 
C[C@]12N[C@H](Cc3ccccc31)c1ccccc12 [MK-801, reference compound] |  | had no effect |  | 
CN[C@H](CC(=O)O)C(=O)O [NMDA, N-methyl-D-aspartate] |  |  | No current was evoked | 
GluR3A: synthetic peptide, amino acids 245-274 of GluR3 (SEQ ID NO:1) (NNENPMVQQFIQRWVRLDEREFPEAKNAP) |  | did not block antibody-evoked currents |  | does not
